Patent EP2369000A1, “Production of peptides and proteins by accumulation in mitochondria” (3T-Science, S.L., priority 2010, dated 2011)

System: internal mitochondrial proteases
Assay: MALDI-TOF-TOF sequence confirmation of MTS cleavage
Parameters: species or system Kluyveromyces lactis
Conditions: for Peptide detected: RFP sequence (1-9) VSKGEELIK, position 1-9; for cleavage of the MTS: enriched sample, gel piece, trypsin digestion
Experimental: The enriched sample was analysed on a 15% SDS-PAGE gel and stained with Coomassie blue. After de-staining the gel a piece of the SDS-PAGE gel was cut at the position where the RFP was expected. This was washed extensively in water and analysed by MALDI-TOF-TOF analysis after trypsin digestion. […]

Substance	Peptide detected	cleavage of the MTS
MIS-VII: synthetic mitochondrial targeting sequence (MTS), SEQ ID NO: 2, containing the core RRRA (RLRRRAARSLARSAARR)	VSKGEELIK	cleavage was correct
MIS-XIII: synthetic mitochondrial targeting sequence (MTS), SEQ ID NO: 3, containing the core RRRA (RAARRRAARR)	VSKGEELIK	cleavage was correct
MIS-XIV: synthetic mitochondrial targeting sequence (MTS), SEQ ID NO: 4, containing the core RRRA (RARRRARR)	VSKGEELIK	cleavage was correct
